The EC50 is the concentration that produces a half-maximal response.

The values that follow come from patent US5268389A, “Thiocarboxylate ester compounds compositions containing the same” (priority 1990, dated 1993).

In test [1] the test system is HIV. The experiment in a line: Reduction of HIV cytopathic effect, CEM-6 (CEMV test, six days). It is filed as cell-based. Conditions: CEM cells; for Activity class of Anti-HIV Compounds, CEM-6: inhibition of viral cytopathic effect, 8640 min; for EC50: free HIV, read-out: Activity of Anti-HIV Compounds (EC50), CEM-6. As for the experimental part:
(§1) The compounds of Examples were tested for anti-AIDS activity by subjecting them to standard National Cancer Institute ("NCI") in vitro screening procedures. In carrying out each test, two blanks were run. In the first blank, HIV and a culture of a standard human cell line were incubated together to measure the infectivity of the virus. The viability of the cells was measured after holding for six or seven days. In an "effective" test, most cells were infected before the holding period was complete.
(§2) Finally, the protective effects of the test compounds were measured. Each cell culture and test compound were incubated with the virus and the viability of the cells was measured as a function of compound concentration after holding for six or seven days. If the compound is active in protecting the cells against the virus, there is typically low cell viability until an effective concentration of the test compound is reached. At this point, cell viability increases steadily toward 100% unless the toxic effect of the compound (as measured in the second blank) takes effect. The concentration of the test compound that results in 50% "control," i.e., a 50% reduction of the viral cytopathic effect, is defined as the EC 50. The therapeutic index TI50 is calculated as IC50/EC50.
(§3) Values of test compound concentrations required for between 20 and 50% reduction of the viral cytopathic effect can also be determined. Such compounds are classified as moderately active.
(§4) The compounds were tested to determine their reduction of HIV cytopathic effect on the human cell lines CEM and MT2. Tests were done by innoculating these cell lines either with free HIV (V) or with a virus Previously cultured with host cells (C). Thus, in Table III the designation CEMV means CEM line cells innoculated with free virus and MT2C means MT2 cells innoculated with cultured viral infected MT2 cells. In some cases the compound was also tested on a cell line together with a sub-effective amount of the known HIV viricide AZT. This is done to test possible synergistic effects. Such a test on the CEM line is denoted CEMZ.
(§5) 1) T4 lymphocytes (CEM cell line) are exposed to HIV at a virus to cell ratio of approximately 0.05 and plated along with non-infected control cells in 96-well microtiter plates.
(§6) 2) Each candidate agent is dissolved in dimethyl sulfoxide (unless otherwise indicated), then diluted 1:200 in cell culture medium. Further dilutions (five-fold) are prepared before adding to an equal volume of medium containing either infected or noninfected cells.
(§7) 3) Cultures are incubated at 37° C. in a 5% carbon dioxide atmosphere for seven days (if six days the CEMV test is identified as CEM-6).
(§8) 4) The tetrazolium salt, XTT, is added to all wells, and cultures are incubated to allow formazan color development by viable cells.
(§9) 5) Individual wells are analyzed spectrophotometrically to quantity formazan production, and in addition are viewed microscopically for detection of viable cells and confirmation of protective activity.
(§10) 6) Drug-treated virus-infected cells are compared with drug-treated non-infected cells and with other appropriate controls (untreated infected and untreated non-infected cells, drug-containing wells without cells, etc.) on the same plate.
On the technique in general: Cytopathic effects are the visible damage that an infection or toxin causes in cultured cells.

Test [2] relates to HIV. Kind of test: Reduction of HIV cytopathic effect, CEM-IW protocol. It is filed as cell-based. Conditions: inhibition of viral cytopathic effect, asterisk: CEMIW protocol. As for the experimental part: as §1, §2, §3, §4
The aforementioned identifiers are used when a batch was prepared and samples inserted into the wells. In procedures calling for the addition of the drug (or no drug) and the CEM uninfected cells to each well, followed by the subsequent addition of the HIV virus, the protocol is designated as CEM-IW.
as §8, §9, §10
Asterisks indicate the CEMIW protocol.

Test [3] has as its system HIV. Kind of test: Reduction of HIV cytopathic effect, CEMZ (CEM line with sub-effective amount of AZT). Conditions: CEM cells, read-out: Activity of Anti-HIV Compounds (EC50), CEMZ. It is filed as cell-based. The procedure: as §1
(§11) In the second blank, the cell line culture and the compound being tested (but not virus) were incubated together to measure the toxicity of the drug to the cellline. The viability of the cells was measured as a function of concentration of the compound, after holding for seven days. Typically, the cells survive at low compound concentrations, but at some higher concentration, toxicity of the compound is manifested and the cells die. The concentration of the test compound that results in 50% inhibition of cell growth is defined as the IC50.
as §2, §3, §4

Test [4] concerns HIV. Kind of test: microbe, parasite or virus in culture. It is filed as cell-based. The following applies: CEM cells, free HIV, read-out: Activity of Anti-HIV Compounds (EC50), CEMV. As for the experimental part:
as §1, §11, §2, §3, §4, §5, §6, §7, §8, §9, §10
7) A determination of activity is made. […]

For test [5], the system named is HIV. Kind of test: Reduction of HIV cytopathic effect, CEMC (CEM cells, virus previously cultured with host cells). It is filed as cell-based. Conditions: for EC50: Human immunodeficiency virus 1, CCRF-CEM, read-out: Activity of Anti-HIV Compounds (EC50), CEMC. The procedure:
as §1, §11
as §2, with “The concentration of the test compound that results in 50% "control," i.e., a 50% reduction of the viral cytopathic effect, is defined as the EC 50.” left out
(§12) Values of test compound concentrations required for between 20 and 50% reduction of the viral cytopathic effect can also be determined. […]
5) Individual wells are analyzed spectrophotometrically to quantity formazan production, and in addition are viewed microscopically for detection of viable cells and confirmation of protective activity. […]

The subject of test [6] is HIV. The experiment in a line: Reduction of HIV cytopathic effect, MT2C (MT2 cells inoculated with cultured virus-infected MT2 cells). The format is cell-based. As for the experimental part:
as §1
(§13) In the second blank, the cell line culture and the compound being tested (but not virus) were incubated together to measure the toxicity of the drug to the cellline. The viability of the cells was measured as a function of concentration of the compound, after holding for seven days. […]
(§14) Finally, the protective effects of the test compounds were measured. Each cell culture and test compound were incubated with the virus and the viability of the cells was measured as a function of compound concentration after holding for six or seven days. […] At this point, cell viability increases steadily toward 100% unless the toxic effect of the compound (as measured in the second blank) takes effect. […] The therapeutic index TI50 is calculated as IC50/EC50.
as §12

For test [7], the system named is HIV. The experiment in a line: Reduction of HIV cytopathic effect, MT2V (MT2 cells, free virus). The format is cell-based. Conditions: Human immunodeficiency virus 1, read-out: Activity of Anti-HIV Compounds (EC50), MT2V. As for the experimental part:
as §1, §13, §14, §12

Test [8] relates to succinate dehydrogenase complex. The following applies: mitochondria from Ustilago maydis, White et al. (1978); cited from earlier work.
[9] abbreviates: Human immunodeficiency virus 1, CCRF-CEM.
[10] abbreviates: Human immunodeficiency virus 1, CCRF-CEM, 144 h.

Where “and” joins values, the source holds several entries; their conditions need not be identical. Equal values may be shown once.

Consider `Cc1nc(C)c(C(=O)Nc2ccc(Cl)c(C(=O)OC(C)C)c2)s1` [Compound 94], for which the “Activity class of Anti-HIV Compounds, CEM-6” value (shortened to “Activity class … CEM-6”) in the test with HIV [1] was “MA (moderate activity (MA), that is, inhibition between approximately 20 and 50%)”. In addition, in the test with HIV [2], the “Activity class of Anti-HIV Compounds, CEM-IW” value was “MA (moderate activity (MA), that is, inhibition between approximately 20 and 50%)”.
As to `CCCOC(=O)c1cc(NC(=O)c2ccccc2C)ccc1Cl` [Compound 24, Propyl 2-chloro-5-[(2-methylbenzoyl)amino]benzoate], in the test on HIV [3] (setting [9]), the concentration giving a half-maximal response (EC50) was determined as 12 µM.
With `CC1=C(C(=O)Nc2cc(C(=O)OC(C)C)c(Cl)cc2F)SCCO1` [Compound 2, 1-Methylethyl 2-chloro-5-[[(5,6-dihydro-2-methyl-1,4-oxathiin-3-yl)carbonyl]amino]-4-fluorobenzoate], the EC50 in the test on HIV [4] is 1.3 µM; with HIV [5], 3.5 µM; with HIV [6] (Human immunodeficiency virus 1, MT2, MT2 cells inoculated with cultured viral infected MT2 cells, read-out: Activity of Anti-HIV Compounds (EC50), MT2C), 3.2 µM; with HIV [7] it was 14.4 µM; in the test with HIV [3] (setting [9]) it was 1.8 µM.
For `Cc1ccoc1C(=O)Nc1ccc(Cl)c(C(=O)OC(C)C)c1` [Compound 17, 1-Methylethyl 2-chloro-5-[[(3-methyl-2-furanyl)carbonyl]amino]benzoate], the values for the EC50 in the test with HIV [4] (setting [9]) and in the test with HIV [3] (setting [9]) were 3.3 µM and 7.9 µM, respectively.
Take `COCCOCCOC(=O)c1cc(NC(=O)C2=C(C)OCCS2)ccc1Cl` [Compound 78, 2-(2-Methoxyethoxy)ethyl 2-chloro-5-[[(5,6-dihydro-2-methyl-1,4-oxathiin-3-yl)carbonyl]amino]benzoate]: the “Activity class … CEM-6” value in the test on HIV [1] was “MA (moderate activity (MA), that is, inhibition between approximately 20 and 50%)”. For the same molecule, the “Activity class of Anti-HIV Compounds, CEM-IW” value in the test on HIV [2] was “MA (moderate activity (MA), that is, inhibition between approximately 20 and 50%)”.
With `Cc1oc(C)c(C(=O)Nc2ccc(Cl)c(C(=O)OC(C)C)c2)c1C` [Compound 16, 1-Methylethyl 2-chloro-5-[[(2,4,5-trimethyl-3-furanyl)carbonyl]amino]benzoate], in the test on HIV [3] (setting [9]), the EC50 was 0.9 µM.
In the case of `COCCOC(=O)c1cc(NC(=O)c2ccccc2)ccc1Cl` [Compound 84, 2-Methoxyethyl 5-[benzoylamino)-2-chlorobenzoate], the “Activity class … CEM-6” value in the test on HIV [1] was “MA (moderate activity (MA), that is, inhibition between approximately 20 and 50%)”.
Consider `CCCC1=C(C(=O)Nc2ccc(Cl)c(C(=O)OC)c2)SCCO1` [Compound 71, Methyl 2-chloro-5-[[(5,6-dihydro-2-propyl-1,4-oxathiin-3-yl)-carbonyl]amino]benzoate], for which the EC50 in the test on HIV [1] was 1.83 µM and 1.62 µM; with HIV [1] (setting [10]), 0.99 µM.
Take `COC(=O)c1cccc(NC(=O)C2=C(C)OCCS2)c1` [methyl 3-[[(5,6-dihydro-2-methyl-1,4-oxathiin-3-yl)carbonyl]amino]benzoate, reference compound]: in test [8], the “inhibition of succinate dehydrogenase complex” value is given as “inhibitors of succinate dehydrogenase complex”.
Turning to `CC(C)OC(=O)c1cc(NC(=O)c2ccsc2)ccc1Cl` [Compound 109], the “Activity class … CEM-6” value in the test with HIV [1] is “MA (moderate activity (MA), that is, inhibition between approximately 20 and 50%)”.
Turning to `Cc1cc(C(=O)Nc2ccc(Cl)c(C(=O)OC(C)C)c2)c(C)o1` [Compound 81, 1-Methylethyl 2-chloro-5-[[(2,5-dimethyl-3-furanyl)carbonyl]amino]benzoate], the EC50 in the test with HIV [1] (setting [10]) came out at 0.42 µM.
Take `Cc1ccccc1C(=O)Nc1ccc(Cl)c(C(=O)OC(C)C)c1` [Compound 23, 1-Methylethyl 2-chloro-5-[(2-methylbenzoyl)amino]benzoate]: the EC50 in the test on HIV [4] came to 5.6 µM; in the test with HIV [4] (setting [9]) it was 5.8 µM; in the test with HIV [3] (setting [9]) it was 1.1 µM.
For the molecule `CC1=C(C(=O)Nc2ccc(Cl)cc2)SCCS1` [Compound 26, N-(4-Chlorophenyl)-5,6-dihydro-3-methyl-1,4-dithiin-2-carboxamide], in the test on HIV [5], the EC50 stood at 35.5 µM. Further, the “Activity class of Anti-HIV Compounds, MT2C” value in the test on HIV [6] (inhibition of viral cytopathic effect, MT2 cells, cultured virus) is “MA (moderate activity (MA), that is, inhibition between approximately 20 and 50%)”.
In the case of `CC(C)=CC(=O)Nc1ccc(Cl)c(C(=O)OC(C)C)c1` [Compound 91, 1-Methylethyl 2-chloro-5-[(3-methyl-1-oxo-2-butenyl)amino]-benzoate], in the test with HIV [1], the “Activity class … CEM-6” value was “MA (moderate activity (MA), that is, inhibition between approximately 20 and 50%)”.
For `CCOC(=O)c1cccc(NC(=O)C2=C(C)OCCS2)c1` [Compound 8, Ethyl 3-[[(5,6-dihydro-2-methyl-1,4-oxathiin-3-yl)carbonyl]amino]benzoate], the “Activity class of Anti-HIV Compounds, CEMC” value in the test on HIV [5] (inhibition of viral cytopathic effect) was “MA (moderate activity (MA), that is, inhibition between approximately 20 and 50%)”. For the same molecule, in test [8], the “inhibition of succinate dehydrogenase complex” value is “inhibitors of succinate dehydrogenase complex”.
Take `CC(C)OC(=O)c1cc(NC(=O)c2ccccc2F)ccc1Cl` [Compound 25, 1-Methylethyl 2-chloro-5-[(2-fluorobenzoyl)amino]benzoate]: in the test with HIV [3], the half-maximal effective concentration (EC50) is 34.4 µM and 39.4 µM.
